This is an account of results in patent US10286038B2, “Lysosome membrane protein 2 (LIMP-2) based peptides and related uses” (Northwestern University, priority 2016, dated 2019).

The target of this assay is T1, recombinant α-mannosidase (LAMAN) (Homo sapiens, UniProt O00754).
T1 construct: purchased Zymenex, Hillerod, DK
T1 sequence (O00754 50-1011): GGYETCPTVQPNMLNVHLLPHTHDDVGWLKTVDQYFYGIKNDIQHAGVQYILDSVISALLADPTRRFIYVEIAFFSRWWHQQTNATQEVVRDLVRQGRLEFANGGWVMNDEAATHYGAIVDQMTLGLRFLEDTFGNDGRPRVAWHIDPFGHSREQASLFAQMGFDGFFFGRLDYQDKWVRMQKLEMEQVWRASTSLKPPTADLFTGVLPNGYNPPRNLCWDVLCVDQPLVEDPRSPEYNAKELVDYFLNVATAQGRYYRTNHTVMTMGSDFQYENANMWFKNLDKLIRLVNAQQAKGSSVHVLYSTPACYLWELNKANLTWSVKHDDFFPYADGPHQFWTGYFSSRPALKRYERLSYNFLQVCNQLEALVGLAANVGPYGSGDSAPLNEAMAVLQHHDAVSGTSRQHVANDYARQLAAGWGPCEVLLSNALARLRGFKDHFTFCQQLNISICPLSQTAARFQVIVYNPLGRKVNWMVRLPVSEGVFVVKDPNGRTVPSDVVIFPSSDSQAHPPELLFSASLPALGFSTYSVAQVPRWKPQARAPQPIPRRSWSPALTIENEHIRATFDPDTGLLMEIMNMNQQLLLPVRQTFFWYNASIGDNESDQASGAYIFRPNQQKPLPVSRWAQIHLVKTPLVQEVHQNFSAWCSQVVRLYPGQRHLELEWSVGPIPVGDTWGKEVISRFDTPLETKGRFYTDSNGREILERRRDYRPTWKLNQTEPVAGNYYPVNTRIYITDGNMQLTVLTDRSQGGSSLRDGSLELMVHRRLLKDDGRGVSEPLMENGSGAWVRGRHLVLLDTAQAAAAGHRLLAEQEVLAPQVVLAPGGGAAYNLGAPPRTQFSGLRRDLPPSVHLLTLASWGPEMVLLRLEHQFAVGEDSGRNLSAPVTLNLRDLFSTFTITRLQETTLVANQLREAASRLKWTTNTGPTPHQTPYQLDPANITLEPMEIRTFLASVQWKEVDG
The assay can be described thus: peptide pulldown of recombinant LAMAN. The following applies: neutral pH. The class given is binding. As for the experimental part:
FIG. 6: Characterization of a helical LIMP-2-derived peptide. […] B) In vitro peptide pulldown assay: helix 5 peptides were incubated with recombinant LAMAN and bovine serum albumin (BSA). INPUT and BOUND fractions were loaded onto SDS-PAGE and proteins visualized by coomassie staining (CBB). C) Densitometry of LAMAN and BSA protein bound to peptide, normalized to protein fraction bound to beads only (buffer; n=2-3). D) and E) Activity assay of recombinant (D) GC and (E) LAMAN incubated with different excess molarities (1×-10×) of helix 5 peptide (n=β-5) and LIMP-2 ectodomain (n=4). GC activities were normalized and statistical analyses compared to 0 input of BSA/helix 5 peptide. F) Peptide-pulldown of GC constructs overexpressed in N2a cells with subsequent Western blot analysis (α-hGC) utilizing helix 5 and the 3×D control peptide as a negative binding control. G) Densitometry of GC protein bound to peptides; each construct is normalized to buffer only. H) Live-cell lysosomal GC activity of H4 cells after uptake of helix 5 and 3×D TAT peptides. GC activity was measures every 30 minutes up to 3.5 hours. Cells were treated with DMSO or the “lysosomal inhibitor” bafilomycinA1. […] Lysosomal activity is calculated by subtracting the AUC of DMSO with the AUC of bafilomycinA1 treated samples (n=4). […] GC activity was measured from 16-74 hours and is shown in mU/mg (n=3). […]

Turning to “Biotin-Ttds-LREIIEAMLKAYQQKLFVTHTVDE [helix 5 peptide]”, the “interaction with recombinant α-mannosidase (LAMAN)” value is recorded as “no interaction”.
